Data: patent US11807609B2, “Deuterated compounds as immunomodulators” (CHEMOCENTRYX, INC., priority 2017, dated 2023)

Target: T1, C5aR (Homo sapiens, UniProt P21730)
T1 construct: added to freshly-drawn human blood (EDTA as anticoagulant); endogenous in cells; host or cells: leukocytes in freshly drawn human whole blood (EDTA)
T1 sequence (P21730 1-350): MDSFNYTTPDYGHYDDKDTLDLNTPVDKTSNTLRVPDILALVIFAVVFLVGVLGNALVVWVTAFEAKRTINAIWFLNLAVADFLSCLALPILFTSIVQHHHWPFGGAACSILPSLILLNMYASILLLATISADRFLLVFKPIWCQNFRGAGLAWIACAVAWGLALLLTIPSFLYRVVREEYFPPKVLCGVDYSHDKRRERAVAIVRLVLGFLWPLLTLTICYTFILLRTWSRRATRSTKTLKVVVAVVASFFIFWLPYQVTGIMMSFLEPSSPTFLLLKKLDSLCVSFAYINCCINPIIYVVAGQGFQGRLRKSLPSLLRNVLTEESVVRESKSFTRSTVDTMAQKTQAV
Experiment: C5a-induced chemotaxis (migration) assay in freshly-drawn human blood, ChemoTX plate, CyQUANT readout
Assay type: cell-based
Conditions: migration of cells from human whole blood (EDTA) toward recombinant hC5a, 37° C., 90-180 minutes; read-out: Mig IC50
Protocol: A serial dilution of C5aR compound or an equivalent volume of DMSO was added to freshly-drawn human blood (EDTA as anticoagulant). Separately, recombinant hC5a was diluted with chemotaxis buffer, after which 29 μl of diluted chemokine was placed in the lower wells of a ChemoTX plate (Neuro Probe, Gaithersburg, MD). A 3-μm (pore size) polycarbonate membrane (Neuro Probe, Gaithersburg, MD) was placed onto the plate, and 20 μL of the blood/compound mixture was transferred onto each well of the membrane. The plates were incubated at 37° C. for 90-180 minutes, after which the polycarbonate membranes were removed and 5 μl of the DNA-intercalating agent CyQUANT (Invitrogen, Carlsbad, CA) was added to the lower wells. The amount of fluorescence, corresponding to the number of migrated cells, was measured using a Spectrafluor Plus plate reader (TECAN, San Jose, CA).
Compounds in Table 1 were prepared by methods as described in the Examples, and evaluated according to the assay above. The IC50 of the compounds are presented in Table 1 as follows: +++, IC50≤100 nM .

SMILES | IC50 [nM]
[2H]c1cc(C)c(C(=O)N2CCC[C@H](C(=O)Nc3ccc(C([2H])([2H])O)c(C(F)(F)F)c3)[C@@H]2c2ccc(NC3CCCC3)cc2)c(F)c1 [Compound 1.001] | ≤ 100
[2H]c1cc([C@H]2[C@@H](C(=O)Nc3ccc(C([2H])([2H])O)c(C(F)(F)F)c3)CCCN2C(=O)c2c(C)cccc2F)ccc1NC1CCCC1 [Compound 1.002] | ≤ 100
[2H]C([2H])([2H])c1cccc(F)c1C(=O)N1CCC[C@H](C(=O)Nc2ccc(C([2H])([2H])O)c(C(F)(F)F)c2)[C@@H]1c1ccc(NC2CCCC2)cc1 [Compound 1.003, (2R,3S)-2-(4-(cyclopentylamino)phenyl)-1-(2-fluoro-6-(methyl-d3)benzoyl)-N-(4-(hydroxymethyl-d2)-3-(trifluoromethyl)phenyl)piperidine-3-carboxamide] | ≤ 100
[2H]C([2H])(O)c1ccc(NC(=O)[C@H]2CCCN(C(=O)c3c(C)cccc3F)[C@H]2c2ccc(NC3CCCC3)cc2)cc1C(F)(F)F [Compound 1.006, (2R,3S)-2-(4-(cyclopentylamino)phenyl)-1-(2-fluoro-6-methylbenzoyl)-N-(4-(hydroxymethyl-d2)-3-(trifluoromethyl)phenyl)-piperidine-3-carboxamide] | ≤ 100
[2H]c1cc([C@H]2[C@@H](C(=O)Nc3c([2H])cc(C)c(C(F)(F)F)c3[2H])CCCN2C(=O)c2c(C)cccc2F)ccc1NC1CCCC1 [Compound 1.007] | ≤ 100
[2H]c1cc([C@H]2[C@@H](C(=O)Nc3ccc(C)c(C(F)(F)F)c3)CCCN2C(=O)c2c(C)cccc2F)ccc1NC1CCCC1 [Compound 1.008] | ≤ 100
[2H]C1(Nc2ccc([C@H]3[C@@H](C(=O)Nc4ccc(C)c(C(F)(F)F)c4)CCCN3C(=O)c3c(C)cccc3F)cc2)CCCC1 [Compound 1.009] | ≤ 100
[2H]C([2H])([2H])c1cccc(F)c1C(=O)N1CCC[C@H](C(=O)Nc2ccc(CO)c(C(F)(F)F)c2)[C@@H]1c1ccc(NC2CCCC2)cc1 [Compound 1.011] | ≤ 100
[2H]c1cc(C)c(C(F)(F)F)c([2H])c1NC(=O)[C@H]1CCCN(C(=O)c2c(F)cccc2C([2H])([2H])[2H])[C@H]1c1ccc(NC2CCCC2)cc1 [Compound 1.012] | ≤ 100
[2H][C@]1(C(=O)Nc2ccc(C)c(C(F)(F)F)c2)CCCN(C(=O)c2c(C)cccc2F)[C@H]1c1ccc(NC2CCCC2)cc1 [Compound 1.015] | ≤ 100
[2H]c1cc(C)c(C(=O)N2CCC[C@H](C(=O)Nc3ccc(C)c(C(F)(F)F)c3)[C@@H]2c2ccc(NC3CCCC3)cc2)c(F)c1 [Compound 1.016] | ≤ 100
[2H]c1cc(C)c(C(F)(F)F)c([2H])c1NC(=O)[C@H]1CCCN(C(=O)c2c(C)cccc2F)[C@H]1c1ccc(NC2CCCC2)cc1 [Compound 1.018, (2R,3S)-2-(4-(cyclopentylamino)phenyl)-1-(2-fluoro-6-methylbenzoyl)-N-(4-methyl-3-(trifluoromethyl)phenyl-2,6-d3)piperidine-3-carboxamide] | ≤ 100
[2H]C1([2H])C([2H])([2H])C([2H])([2H])C([2H])(Nc2ccc([C@H]3[C@@H](C(=O)Nc4ccc(C)c(C(F)(F)F)c4)CCCN3C(=O)c3c(C)cccc3F)cc2)C1([2H])[2H] [Compound 1.019, (2R,3S)-2-(4-((cyclopentyl-d9)amino)phenyl)-1-(2-fluoro-6-methylbenzoyl)-N-(4-methyl-3-(trifluoromethyl)phenyl)piperidine-3-carboxamide] | ≤ 100
[2H]c1cc(C)c(C(F)(F)F)cc1NC(=O)[C@H]1CCCN(C(=O)c2c(C)cccc2F)[C@H]1c1ccc(NC2CCCC2)cc1 [Compound 1.020] | ≤ 100

Now from value to compound:

IC50 [nM] | SMILES
≤ 100 | [2H]c1cc([C@H]2[C@@H](C(=O)Nc3ccc(C)c(C(F)(F)F)c3)CCCN2C(=O)c2c(F)cccc2C([2H])([2H])[2H])ccc1NC1CCCC1 [Compound 1.004]
≤ 100 | [2H]C1([2H])CC(Nc2ccc([C@H]3[C@@H](C(=O)Nc4ccc(C)c(C(F)(F)F)c4)CCCN3C(=O)c3c(C)cccc3F)cc2)CC1([2H])[2H] [Compound 1.005]
≤ 100 | [2H]C([2H])([2H])c1ccc(NC(=O)[C@H]2CCCN(C(=O)c3c(F)cccc3C([2H])([2H])[2H])[C@H]2c2ccc(NC3CCCC3)cc2)cc1C(F)(F)F [Compound 1.010, (2R,3S)-2-(4-(cyclopentylamino)phenyl)-1-(2-fluoro-6-(methyl-d3)benzoyl)-N-(4-(methyl-d3)-3-(trifluoromethyl)phenyl)piperidine-3-carboxamide]
≤ 100 | [2H]c1cc(C)c(C(=O)N2CCC[C@H](C(=O)Nc3ccc(C)c(C(F)(F)F)c3)[C@@H]2c2ccc(NC3CC([2H])([2H])C([2H])([2H])C3)cc2)c(F)c1 [Compound 1.013]
≤ 100 | [2H]C([2H])([2H])c1cccc(F)c1C(=O)N1CCC[C@H](C(=O)Nc2ccc(C)c(C(F)(F)F)c2)[C@@H]1c1ccc(NC2CC([2H])([2H])C([2H])([2H])C2)cc1 [Compound 1.014, (2R,3S)-2-(4-((cyclopentyl-3,3,4,4-d4)amino)phenyl)-1-(2-fluoro-6-(methyl-d3)benzoyl)-N-(4-methyl-3-(trifluoromethyl)phenyl)piperidine-3-carboxamide]
≤ 100 | [2H]C([2H])([2H])c1cccc(F)c1C(=O)N1CCC[C@H](C(=O)Nc2ccc(C)c(C(F)(F)F)c2)[C@@H]1c1ccc(NC2CCCC2)cc1 [Compound 1.017]
≤ 100 | [2H]C([2H])([2H])c1ccc(NC(=O)[C@H]2CCCN(C(=O)c3c(C)cccc3F)[C@H]2c2ccc(NC3CCCC3)cc2)cc1C(F)(F)F [Compound 1.021, (2R,3S)-2-(4-(cyclopentylamino)phenyl)-1-(2-fluoro-6-methylbenzoyl)-N-(4-(methyl-d3)-3-(trifluoromethyl)phenyl)piperidine-3-carboxamide]
